Patent US20140378416A1, “SILYL-CONTAINING HETEROCYCLIC COMPOUNDS AND METHODS OF USE THEREOF FOR THE TREATMENT OF VIRAL DISEASES” (priority 2011, published 2014)
Where two headings read alike, the source gives them in different places.

Assays:
HCV replicon 2b = experiment: Cell-based HCV replicon assay (TaqMan), genotype 2b replicon; conditions: EC90 = concentration for ΔCT=3.2 over baseline
Procedure: (§1) Measurement of inhibition by compounds of the present invention was performed using the HCV replicon system. Several different replicons encoding different HCV genotypes or mutations were used. In addition, potency measurements were made using different formats of the replicon assay, including different ways of measurements and different plating formats. See Jan M. Vrolijk et al., A replicons-based bioassay for the measurement of interferons in patients with chronic hepatitis C, 110 J. VIROLOGICAL METHODS 201 (2003); Steven S. Carroll et al., Inhibition of Hepatitis C Virus RNA Replication by 2′-Modified Nucleoside Analogs, 278(14) J. BIOLOGICAL CHEMISTRY 11979 (2003). However, the underlying principles are common to all of these determinations, and are outlined below.
(§2) Compounds of the present invention were assayed for cell-based anti-HCV activity using the following protocol. Replicon cells were seeded at 5000 cells/well in 96-well collagen I-coated Nunc plates in the presence of the test compound. Various concentrations of test compound, typically in 10 serial 2-fold dilutions, were added to the assay mixture, with the starting concentration ranging from 250 μM to 1 μM. The final concentration of DMSO was 0.5%, fetal bovine serum was 5%, in the assay media. Cells were harvested on day 3 by the addition of 1× cell lysis buffer (Ambion cat #8721). The replicon RNA level was measured using real time PCR (TaqMan® assay). The amplicon was located in 5B. The PCR primers were: 5B.2F, ATGGACAGGCGCCCTGA (SEQ. ID NO. 1); 5B.2R, […] (SEQ. ID NO. 2); the probe sequence was FAM-labeled CACGCCATGCGCTGCGG (SEQ. ID NO. 3). GAPDH RNA was used as endogenous control and was amplified in the same reaction as NS5B (multiplex PCR) using primers and VIC-labeled probe recommended by the manufacturer (PE Applied Biosystem). The real-time […] reactions were run on ABI PRISM 7900HT Sequence Detection System using the following program: 48° C. for 30 minutes, 95° C. for 10 minutes, 40 cycles of 95° C. for 15 sec, 60° C. for 1 minute. The ACT values (CT5B-CTGAPDH) were plotted against the concentration of test compound and fitted to the sigmoid dose-response model using XLfit4 (MDL). EC50 was defined as the concentration of inhibitor necessary to achieve ΔCT=1 over the projected baseline; EC90 the concentration necessary to achieve ΔCT=3.2 over the baseline. Alternatively, to quantitate the absolute amount of replicon RNA, a standard curve was established by including serially diluted T7 transcripts of replicon RNA in the Taqman assay. All TaqMan® reagents were from PE Applied Biosystems. Such an assay procedure was described in detail in e.g. Malcolm et al., Antimicrobial Agents and Chemotherapy 50: 1013-1020 (2006).
(§3) HCV replicon EC50 assay data for various replicons and mutants was calculated for selected compounds of the present invention using this method and is provided in the tables above herein.

HCV replicon 1a = experiment: Cell-based HCV replicon assay (TaqMan), genotype 1a replicon; conditions: HCV 1a replicon cells, replicon RNA by TaqMan on day 3, EC90 = concentration for ΔCT=3.2 over baseline
Procedure: as §1, §2, §3

HCV replicon 1a Y93H = experiment: Cell-based HCV replicon assay (TaqMan), genotype 1a Y93H mutant replicon; conditions: EC90 = concentration for ΔCT=3.2 over baseline
Procedure: as §1, §2, §3

HCV replicon 1b = experiment: Cell-based HCV replicon assay (TaqMan), genotype 1b replicon; conditions: HCV 1b replicon cells, replicon RNA by TaqMan on day 3, EC90 = concentration for ΔCT=3.2 over baseline
Procedure: as §1, §2, §3

[1] = Hepatitis C virus, 72 h, read-out: 2b EC90, HCV 2b replicon cells, replicon RNA by TaqMan on day 3
[2] = Hepatitis C virus, 72 h, read-out: 1a Y93H EC90, HCV 1a Y93H mutant replicon cells, replicon RNA by TaqMan on day 3

Structure (SMILES) | EC90 (HCV replicon 2b; read-out: 2b EC90, HCV 2b replicon cells, replicon RNA by TaqMan on day 3) [nM] | EC90 (HCV replicon 1a) [nM] | EC90 (HCV replicon 1a Y93H; read-out: 1a Y93H EC90, HCV 1a Y93H mutant replicon cells, replicon RNA by TaqMan on day 3) [nM] | EC90 (HCV replicon 1b) [nM] | EC90 (HCV replicon 2b; [1]) [nM] | EC90 (HCV replicon 1a; Hepatitis C virus, 72 h) [nM] | EC90 (HCV replicon 1a Y93H; [2]) [nM] | EC90 (HCV replicon 1b; Hepatitis C virus, 72 h) [nM]
CC[C@H](C)[C@H](NC(=O)OC)C(=O)N1CCC[C@H]1c1ncc(-c2ccc(-c3ccc(-c4cnc([C@@H]5C[Si](C)(C)CN5C(=O)[C@@H](NC(=O)OC)[C@@H](C)CC)[nH]4)cc3)cc2)[nH]1 [Compound 30] | 248 | 1.33 | 610 | 7.63 | – | – | – | –
COC(=O)NC1(C(=O)N2CCC[C@@H]2c2ncc(-c3ccc(-c4ccc(-c5cnc([C@H]6C[Si](C)(C)CN6C(=O)C6(NC(=O)OC)CC6)[nH]5)cc4)cc3)[nH]2)CC1 [Compound 20] | – | – | – | – | 1000 | 1000 | 1000 | 1000
COC(=O)N[C@@H](C)C(=O)N1C[Si](C)(C)C[C@H]1c1nc(Cl)c(-c2ccc(-c3ccc(-c4[nH]c([C@@H]5C[C@H]6C[C@H]6N5C(=O)[C@H](C)NC(=O)OC)nc4Cl)cc3)cc2)[nH]1 [Compound 52] | – | – | – | – | 57 | 0.021 | 9.5 | 0.007
COC(=O)N[C@H](C(=O)N1C[Si](C)(C)C[C@H]1c1ncc(-c2ccc(-c3ccc(-c4ncc([C@@H]5C[C@H]6C[C@H]6N5C(=O)[C@@H](NC(=O)OC)C(C)C)[nH]4)cc3)cc2)[nH]1)C(C)C [Compound 69] | – | – | – | – | 371 | 0.84 | > 100 | 0.019
COC(=O)N[C@H](C(=O)N1CCC[C@@H]1c1ncc(-c2ccc(-c3ccc(-c4cnc([C@H]5C[Si](C)(C)CN5C(=O)[C@@H](NC(=O)OC)c5ccccc5)[nH]4)cc3)cc2)[nH]1)c1ccccc1 [Compound 19] | – | – | – | – | 999 | 25.5 | 1000 | 11
COC(=O)N[C@@H](Cn1cccn1)C(=O)N1CCC[C@H]1c1ncc(-c2ccc(-c3ccc(-c4cnc([C@@H]5C[Si](C)(C)CN5C(=O)[C@H](Cn5cccn5)NC(=O)OC)[nH]4)cc3)cc2)[nH]1 [Compound 29] | – | – | – | – | 861 | 5.32 | 1000 | 139
CC[C@H](NC(=O)OC)C(=O)N1CCC[C@H]1c1ncc(-c2ccc(-c3ccc(-c4cnc([C@@H]5C[Si](C)(C)CN5C(=O)[C@H](CC)NC(=O)OC)[nH]4)cc3)cc2)[nH]1 [Compound 12] | – | – | – | – | 535 | 0.187 | 694 | 18.1
COC(=O)N[C@@H](C)C(=O)N1CCC[C@@H]1c1ncc(-c2ccc(-c3ccc(-c4cnc([C@H]5C[Si](C)(C)CN5C(=O)[C@H](C)NC(=O)OC)[nH]4)cc3)cc2)[nH]1 [Compound 18] | – | – | – | – | 1000 | 988 | 1000 | 1000
COC(=O)N[C@@H](Cc1cccc(O)c1)C(=O)N1CCC[C@H]1c1ncc(-c2ccc(-c3ccc(-c4cnc([C@@H]5C[Si](C)(C)CN5C(=O)[C@H](Cc5cccc(O)c5)NC(=O)OC)[nH]4)cc3)cc2)[nH]1 [Compound 26] | – | – | – | – | 1000 | 11.5 | 1000 | 387
COC(=O)N[C@H](C(=O)N1CCC[C@H]1c1nc(Cl)c(-c2ccc(-c3ccc(-c4[nH]c([C@@H]5C[Si](C)(C)CN5C(=O)[C@@H](NC(=O)OC)C(C)C)nc4Cl)cc3)cc2)[nH]1)C(C)C [Compound 41] | – | – | – | – | 100 | 0.26 | 189 | 217
COC(=O)N[C@H](C(=O)N1CCC[C@H]1C(=O)Nc1n[nH]c2ccc(-c3ccc(-c4cnc([C@@H]5C[Si](C)(C)CN5C(=O)[C@@H](NC(=O)OC)C(C)C)[nH]4)cc3)cc12)C(C)C [Compound 79] | – | – | – | – | > 100 | > 1 | > 100 | > 1
CCS(=O)(=O)N1CCC(NC(=O)c2ccc(-c3ccc(-c4cnc([C@@H]5C[Si](C)(C)CN5C(=O)[C@@H](NC(=O)OC)C(C)C)[nH]4)cc3)cc2)CC1 [Compound 75] | – | – | – | – | > 1000 | 159 | > 1000 | 0.028
CCN(CC)[C@@H](C(=O)N1C[Si](C)(C)C[C@H]1c1nc(Cl)c(-c2ccc(-c3ccc(-c4[nH]c([C@@H]5C[C@H]6C[C@H]6N5C(=O)[C@@H](c5ccccc5)N(CC)CC)nc4Cl)cc3)cc2)[nH]1)c1ccccc1 [Compound 55] | – | – | – | – | 0.16 | 0.047 | 16.4 | 0.019
COC(=O)N[C@@H](C(=O)N1CCC[C@@H]1c1ncc(-c2ccc(-c3ccc(-c4cnc([C@H]5C[Si](C)(C)CN5C(=O)[C@H](NC(=O)OC)C5CCCOCC5)[nH]4)cc3)cc2)[nH]1)C1CCCOCC1 (stereo partly shown) [Compound 21] | – | – | – | – | 204 | 4.42 | 1000 | 18.7
COC(=O)N[C@@H](Cc1ccccc1)C(=O)N1CCC[C@H]1c1ncc(-c2ccc(-c3ccc(-c4cnc([C@@H]5C[Si](C)(C)CN5C(=O)[C@H](Cc5ccccc5)NC(=O)OC)[nH]4)cc3)cc2)[nH]1 [Compound 13] | – | – | – | – | 1000 | 29.8 | 1000 | 923
COC(=O)N[C@H](C(=O)N1C[C@H](F)C[C@H]1c1ncc(-c2ccc(C#Cc3ccc(-c4cnc([C@@H]5C[Si](C)(C)CN5C(=O)[C@@H](NC(=O)OC)C(C)OC)[nH]4)cc3)cc2)[nH]1)C(C)C (stereo partly shown) [Compound 59] | – | – | – | – | > 100 | > 1 | > 100 | 0.02
COC(=O)N[C@H](C(=O)N1C[Si](C)(C)C[C@H]1c1nc(Cl)c(-c2ccc(-c3ccc(-c4[nH]c([C@@H]5C[C@H]6C[C@H]6N5C(=O)[C@@H](NC(=O)OC)C5CC5)nc4Cl)cc3)cc2)[nH]1)C1CC1 [Compound 53] | – | – | – | – | 11.3 | 0.01 | 26.8 | 0.01
COC(=O)N[C@H](C(=O)N1CCC[C@H]1c1ncc(-c2ccc(-c3ccc(-c4cnc([C@@H]5C[Si](C)(C)CN5C(=O)[C@@H](NC(=O)OC)C5CCCCC5)[nH]4)cc3)cc2)[nH]1)C1CCCCC1 [Compound 34] | – | – | – | – | 648 | 2.5 | > 1000 | 0.04
COC(=O)N[C@@H](Cc1cn(C)cn1)C(=O)N1CCC[C@H]1c1ncc(-c2ccc(-c3ccc(-c4cnc([C@@H]5C[Si](C)(C)CN5C(=O)[C@H](Cc5cn(C)cn5)NC(=O)OC)[nH]4)cc3)cc2)[nH]1 [Compound 28] | – | – | – | – | 1000 | 11.9 | 1000 | 282
